How the values were obtained:
Assay in all cases: cell proliferation, tumor derived cell lines
Format in all cases: cell-based
41M = conditions: Homo sapiens, Ovarian, 72 or 96 hours exposure
Method: (§1) Thirty-seven cancer derived cell lines are used (BT474, MDA-MB-361, MDA-MB-453, SKBr3, T47D, MCF7, MDA-MB-231, MDA-MB-468, SK-MEL-5, A375, MALME-3M, SK-MEL-28, WM266.4, RPMI8226, U266, BE, Colo205, HCT116, HT29, MAWI, RKO, U87MG, HN5, RPMI-8226, A549, MV522, NCI-H1299, NCI-H460, 41M, A2780, CHI, NCI-N87, SKOV3, PC3, MO7e, GIST882 and Baf3) to test the effect of 5-(2,4-Dihydroxy-5-isopropyl-phenyl)-4-(4-morpholin-4-ylmethyl-phenyl)-isoxazole-3-carboxylic acid ethylamide. Cell lines are commercially available from American Type Culture Collection (ATCC). These cell lines cover the following 12 cancer or tumor types: breast, melanoma, multiple myeloma (MM), colon, glioblastoma, head & neck, leukemia, lung, ovarian, prostate, stomach and gastrointestinal stromal tumour (GIST). After division and medium change, cells from stock culture are seeded on cell plates and cultured for about 18 hours to allow cell growth and attachment before starting the assay. On the first day of the assay, 5-(2,4-Dihydroxy-5-isopropyl-phenyl)-4-(4-morpholin-4-ylmethyl-phenyl)-isoxazole-3-carboxylic acid ethylamide is added to the medium at various concentrations up to […]. Cells are cultured up to 72 or 96 hours and cell proliferation is determined using commercially available cell proliferation kits.
(§2) The cells were continually exposed to 5-(2,4-Dihydroxy-5-isopropyl-phenyl)-4-(4-morpholin-4-ylmethyl-phenyl)-isoxazole-3-carboxylic acid ethylamide for either 72 or 96 hours and cell growth was determined by commercially available kits based on either SRB, Alamar blue, methylene blue or WST-1 methods.

Baf3 = conditions: Mus musculus, Gastrointestinal stromal tumour (GIST), 72 or 96 hours exposure
Method: as §1, §2

RKO = conditions: Homo sapiens, Colon, 72 or 96 hours exposure
Method: as §1, §2

SK-MEL-28 = conditions: Homo sapiens, Melanoma, 72 or 96 hours exposure
Method: as §1, §2

HN5 = conditions: Homo sapiens, Head & Neck, 72 or 96 hours exposure
Method: as §1, §2

U266 = conditions: Homo sapiens, U-266, Multiple myeloma (MM), 72 or 96 hours exposure
Method: as §1, §2

MAWI = conditions: Colon, 72 or 96 hours exposure
Method: as §1, §2

A2780 = conditions: Homo sapiens, Ovarian, 72 or 96 hours exposure
Method: as §1, §2

HT29 = conditions: Homo sapiens, HT-29, Colon, 72 or 96 hours exposure
Method: as §1, §2

SKBr3 = conditions: Homo sapiens, SK-BR-3, Breast, 72 or 96 hours exposure
Method: as §1, §2

BE = conditions: Colon, 72 or 96 hours exposure
Method: as §1, §2

MALME-3M = conditions: Homo sapiens, Melanoma, 72 or 96 hours exposure
Method: as §1, §2

RPMI8226 = conditions: Homo sapiens, RPMI-8226, Multiple myeloma (MM), 72 or 96 hours exposure
Method: as §1, §2

MDA-MB-361 = conditions: Homo sapiens, Breast, 72 or 96 hours exposure
Method: as §1, §2

A549 = conditions: Homo sapiens, Lung, 72 or 96 hours exposure
Method: as §1, §2

SKOV3 = conditions: Homo sapiens, SK-OV-3, Ovarian, 72 or 96 hours exposure
Method: as §1, §2

WM266.4 = conditions: Homo sapiens, WM 266-4, Melanoma, 72 or 96 hours exposure
Method: as §1, §2

MDA-MB-468 = conditions: Homo sapiens, Breast, 72 or 96 hours exposure
Method: as §1, §2

MO7e = conditions: 72 or 96 hours exposure
Method: as §1, §2

MCF7 = conditions: Homo sapiens, Breast, 72 or 96 hours exposure
Method: as §1, §2

MV522 = conditions: Lung, 72 or 96 hours exposure
Method: as §1, §2

PC3 = conditions: Homo sapiens, PC-3, Prostate, 72 or 96 hours exposure
Method: as §1, §2

Colo205 = conditions: Homo sapiens, COLO 205, Colon, 72 or 96 hours exposure
Method: as §1, §2

U87MG = conditions: Homo sapiens, U-87 MG, Glioblastoma, 72 or 96 hours exposure
Method: as §1, §2

GIST882 = conditions: Homo sapiens, Gastrointestinal stromal tumour (GIST), 72 or 96 hours exposure
Method: as §1, §2

NCI-H1299 = conditions: Homo sapiens, Lung, 72 or 96 hours exposure
Method: as §1, §2

MDA-MB-453 = conditions: Homo sapiens, Breast, 72 or 96 hours exposure
Method: as §1, §2

SK-MEL-5 = conditions: Homo sapiens, Melanoma, 72 or 96 hours exposure
Method: as §1, §2

NCI-N87 = conditions: Homo sapiens, Stomach, 72 or 96 hours exposure
Method: as §1, §2

A375 = conditions: Homo sapiens, A-375, Melanoma, 72 or 96 hours exposure
Method: as §1, §2

CH1 = conditions: Homo sapiens, Ovarian, 72 or 96 hours exposure
Method: as §1, §2

HCT116 = conditions: Homo sapiens, HCT-116, Colon, 72 or 96 hours exposure
Method: as §1, §2

Compound: CCNC(=O)c1noc(-c2cc(C(C)C)c(O)cc2O)c1-c1ccc(CN2CCOCC2)cc1 [AUY922, 5-(2,4-Dihydroxy-5-isopropyl-phenyl)-4-(4-morpholin-4-ylmethyl-phenyl)-isoxazole-3-carboxylic acid ethylamide]
- IC50 (41M): 3 nM
- IC50 (Baf3): 22.4 nM
- IC50 (RKO): 3.1 nM
- IC50 (SK-MEL-28): 8 nM
- IC50 (HN5): 8 nM
- IC50 (U266): 23.3 nM
- IC50 (MAWI): 50 nM
- IC50 (A2780): 6.1 nM
- IC50 (HT29): 30 nM
- IC50 (SKBr3): 2.3 nM
- IC50 (BE): 2.8 nM
- IC50 (MALME-3M): 7.7 nM
- IC50 (RPMI8226): 36.7 nM
- IC50 (MDA-MB-361): 6 nM
- IC50 (A549): 11.7 nM
- IC50 (SKOV3): 3.7 nM
- IC50 (WM266.4): 6.2 nM
- IC50 (MDA-MB-468): 3.5 nM
- IC50 (MO7e): 10.6 nM
- IC50 (MCF7): 2.3 nM
- IC50 (MV522): 8.1 nM
- IC50 (PC3): 5 nM
- IC50 (Colo205): 6.2 nM
- IC50 (U87MG): 6 nM
- IC50 (GIST882): 6.2 nM
- IC50 (NCI-H1299): 5.7 nM
- IC50 (MDA-MB-453): 3.9 nM
- IC50 (SK-MEL-5): 3 nM
- IC50 (NCI-N87): 0.2 nM
- IC50 (A375): 3 nM
- IC50 (CH1): 2.8 nM
- IC50 (HCT116): 16 nM
